# Entries after “also recorded” stand apart in the source; their conditions may differ.
# Assays:
# human SK1 = target: T1, human SK1 (Homo sapiens, UniProt Q92952); experiment: Whole-cell patch-clamp of SK1 currents in CHO cells; type: cell-based; settings: 20 μM
# T1 construct: expressed in transfected cells; host or cells: CHO cells
# Experimental: Constructs: For CHO cell transfection, the following were cloned: human SK1, rat SK2, human SK3, and rat calmodulin into the pcDNA3 vector, human SK4 into pEGFP-C1 vector, and PIP4,5-kinase into an IRES-dsRed plasmid. The mutations were introduced using the PCR-based QuikChange™ site-directed mutagenesis (Stratagene®) and were verified by full sequencing of the entire plasmid vector.
# Cell Culture and Transfection: Chinese hamster ovary (CHO) cells were grown in Dulbecco's modified Eagle's medium supplemented with 2 millimolar (mM) glutamine, 10% fetal calf serum, and antibiotics. In brief, 40,000 cells seeded on poly-L-lysine-coated glass coverslips (13 millimeter (mm) in diameter) in a 24-multiwell plate were transfected with 0.5 microgram (μg) pEGFP-SK4/0.5 μg mutant SK4, 1.2 μg dsRed-PIP4,5-kinase or with 1 μg SK1/SK2/SK3 together with pIRES-CD8 (0.3 μg) as a marker for transfection. Transfection was performed using TransIT-LT1 Transfection Reagent (Mirus Bio) according to the manufacturer's protocol. For electrophysiology, transfected cells were visualized approximately 40 hours after transfection with a Zeiss Axiovert 35 inverted florescence microscope.
# Whole-cell patch-clamp recording: Voltage-clamp recordings were performed using the whole-cell configuration of the patch-clamp technique. Signals were amplified using an […] patch-clamp amplifier (Molecular Devices), sampled at 5 kHz and filtered at 2.4 kHz via a four pole Bessel low pass filter. Data were acquired using pClamp™ 10.5 software in conjunction with an Axon™ DigiData® 1440A interface (Molecular Devices). The patch pipettes were pulled from borosilicate glass (Harvard Apparatus) with a resistance of 3-5 megaohms (MΩ). The intracellular pipette solution contained 130 mM KCl, 5 mM EGTA, 10 mM HEPES, pH 7.3 (adjusted with KOH), and CaCl2 calculated for a final concentration of 1 μM free-Ca^2+, by MAXCHELATOR (WEBMAXC STANDARD) software, with sucrose added to adjust osmolarity to 290 mosM. […]
# [1] = tested on: isolated guinea pig hearts; experiment: Langendorff perfused isolated guinea pig hearts; settings: 10 μM
# Experimental: Animals: Adult male Sprague-Dawley rats (n=56, 200-250 grams) and Guinea pigs (n=19, 400-700 grams) obtained from Envigo Laboratories (Jerusalem, Israel) were bred and grown in Ben-Gurion University of the Negev, Israel. Experiments in rats and guinea pigs were approved by the institutional ethics committee of Ben-Gurion University of the Negev, Israel (Protocol No. IL-24-05-2020(D) and were carried out in strict accordance with the Guide for the Care and Use of Laboratory Animals of the National Institutes of Health. The animals were kept under standardized conditions: 12:12 light: dark cycles at 20-24° C. and 30-70% relative humidity.
# Perfused isolated hearts—Langendorff method: The isolated heart experiment setup was performed as described in Etzion et al., Am J Physiol Heart Circ Physiol (2008) 295, H1460-1469; and Mor et al., J Pharmacol Exp Ther (2013) 344, 59-67.]. Briefly, each animal was anesthetized with 2% isoflurane and an intraperitoneal (IP) injection of pentobarbital (60 mg/kg), followed by IP injection of Heparin (1000 U/kg). The heart was rapidly excised and placed into ice-cold Tyrode's buffer solution (consisted of 140 mM NaCl, 5.4 mM KCl, 0.5 mM MgCl2, 2.5 mM CaCl2, 0.39 mM NaH2PO4, 10 mM HEPES and 11 mM glucose, and titrated to pH 7.4 with NaOH). The aorta was cannulated and connected to a pre-heated (37° C.) and oxygenated perfusion system with Tyrode's solution while perfusion pressure was maintained at about 70 mmHg throughout the experiment. Prior to the experiment, the heart was left in Tyrode's solution to stabilize for 20 minutes for hemodynamic measurements, the left atrial appendage was excised, and a collapsed latex balloon was inserted into the left ventricle (LV) through the mitral valve. Once positioned, the balloon was filled with double distilled water reaching an end-diastolic pressure of 10-15 mmHg. Coronary perfusion pressure and LV pressure were recorded by a pressure amplifier (ETH-256C amplifier and B-100 probes, iWorx, NH, USA). Electrophysiological signals were recorded from the high right atrium (HRA) via a miniature quadripolar hook electrode (for simultaneous pacing and recording) and from the LV via a bipolar hook electrode. Electrical signals were filtered (1-2 kHz) and recorded by two voltage amplifiers (Model 3000, A-M Systems, Carlsberg, WA, USA). Signals were interfaced with a PC using an A/D converter (PCI-6024E, National Instruments, Austin TX, USA) and a custom-designed program developed with LabVIEW programing language (National Instruments, Austin, TX, USA) to control signal acquisition, data saving and off-line analysis. Measured physiological parameters during the experiment included perfusion flow (ml/minute) as a marker for coronary perfusion pressure, LV developed pressure, dP/dt±(representing the rate of rise of left ventricular pressure during isovolumetric contraction as a marker for LV contractility), heart rate, PR, and RR intervals. Tram-34 and BA6b9 were applied for a 20-minutes incubation period and physiological parameters were recorded.
# Effective refractory period measurements: Using both custom-made quadripolar electrode inserted on the HRA and two bipolar electrodes (recording and pacing) on the LV, allowed measurement of the effective refractory period (ERP) at the atrial level (atrial effective refractory period, AERP), atrioventricular level (AVERP), and ventricular level (VERP). For ERP measurement, a programmed S1S2 stimulation protocol was performed using double diastolic threshold intensity. The protocol consisted of ten S1-S2 intervals of 150 milliseconds (ms) followed by an S1-S2 interval that was reduced by 1 ms each time, until pacing capture failed three consecutive times. AERP, AVERP, and VERP were measured and recorded prior and after exposure to the used inhibitor, either Tram-34 or BA6b9.
structure (smiles),measurement,setting,value
"CCCCCCCn1c(=O)oc2ccccc21 [BA6b9, 3-heptylbenzo[d]oxazol-2(3H)-one]",SK1 activity in comparison with control,human SK1,118%
same,SK1 drug-to-control current ratio,human SK1,1.18
same,effect on SK1 currents (representative trace),human SK1,nearly nullified effect; also recorded: did not lead to modulation
same,AERP (effect),[1],significantly prolonged
same,AVERP (effect),[1],significantly prolonged
same,PR interval (effect),[1],increasing PR interval
same,VERP (effect),[1],significantly prolonged
same,action potential activation current (atrial and ventricular pacing thresholds),[1],Neither Tram-34 nor BA6b9 affected
same,coronary flow (perfusion flow velocity),[1],no effect
same,heart rate (effect),[1],decreased heart rate
